Results as given in the supplement of paper PMC10290057.

Tests used:
HCT116 [1] = assay: efficacy (fitted maximal change in viability relative to DMSO control); higher = less cytotoxic (negative = loss of viability); details: 48 h
HCT116 [2] = assay: AC50 cell viability (CellTiter-Glo); higher = less potent; details: 48 h
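Wherever AC50 cell viability (CellTiter-Glo) is given: HCT116 colorectal carcinoma cells screened at five concentrations per compound, luminescent viability scaled between DMSO wells and empty wells on each plate, curves fitted per compound.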
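Wherever efficacy (fitted maximal change in viability relative to DMSO control) is given: Luminescence-based viability readout, five doses per compound, normalized against on-plate DMSO and empty-well controls, followed by dose-response curve fitting for every drug.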

c1ccc2c(-c3cnn4cc(-c5ccc(OCCN6CCOCC6)cc5)cnc34)ccnc2c1
efficacy (HCT116 [1]): -84.3% | AC50 cell viability (HCT116 [2]): 6.45 µM

c1cc(N[C@@H]2CCNC2)nc(-c2cnc3ccc(-c4cn[nH]c4)cn23)c1
efficacy (HCT116 [1]): -59.7% | AC50 cell viability (HCT116 [2]): 7.42 µM

CC(=O)NCC(=O)N1[C@@H]2CC[C@H]1c1ccc(Nc3ncc(C(F)(F)F)c(NC4CCC4)n3)cc12
efficacy (HCT116 [1]): -73.5% | AC50 cell viability (HCT116 [2]): 1.48 µM

CC(C)(C)C[C@H]1N[C@@H](C(=O)N[C@H]2CC[C@H](O)CC2)[C@H](c2cccc(Cl)c2F)[C@@]12C(=O)Nc1cc(Cl)ccc12
efficacy (HCT116 [1]): -91.1% | AC50 cell viability (HCT116 [2]): 4.17 µM

CC(C)c1ccc(Cn2ccc3c4c(N)nc(NC5CC5)nc4ccc32)cc1
efficacy (HCT116 [1]): -102% | AC50 cell viability (HCT116 [2]): 0.332 µM

CC(C)c1noc(N2CCC(COc3ccc(-c4ccc([S+](C)(=O)[O-])cc4)nc3)CC2)n1
efficacy (HCT116 [1]): -32.3% | AC50 cell viability (HCT116 [2]): 3.72 µM

Cc1ccc(C(N)=O)cc1Nc1nccc(-c2cn(C(C)C)c3cnccc23)n1
efficacy (HCT116 [1]): -69.4% | AC50 cell viability (HCT116 [2]): 2.09 µM

Cc1c(C(=O)Nc2cccc(C(F)(F)F)c2)cc(-c2ccccc2)n1CCCN1CCOCC1
efficacy (HCT116 [1]): -75.8% | AC50 cell viability (HCT116 [2]): 20.9 µM

Cc1cc(I)ccc1Nc1c(C(=O)NOCC2CC2)cc(F)c(F)c1F
efficacy (HCT116 [1]): -95.1% | AC50 cell viability (HCT116 [2]): 4.68 µM

Cc1cccc(Nc2nc(N[C@@H]3CCCC[C@@H]3N)ncc2C(N)=O)c1
efficacy (HCT116 [1]): -94.8% | AC50 cell viability (HCT116 [2]): 7.42 µM

Cc1ccc([S+](=O)([O-])Nc2cc(Cl)ccc2C(=O)Nc2nc(-c3ccccc3)cs2)cc1
efficacy (HCT116 [1]): -82.5% | AC50 cell viability (HCT116 [2]): 2.63 µM

Cc1ccc(NC(=O)c2ccc3c(c2)OCCO3)cc1NC(=O)c1ccc2nc(OCCN3CCCC3)ccc2c1
efficacy (HCT116 [1]): -69.9% | AC50 cell viability (HCT116 [2]): 0.0407 µM

Cc1cccc(Nc2nc(-c3ccncc3)cs2)c1
efficacy (HCT116 [1]): -69.9% | AC50 cell viability (HCT116 [2]): 18.6 µM

Cc1n[nH]c2ccc(-c3cncc(OC[C@@H](N)Cc4c[nH]c5ccccc45)c3)cc12
efficacy (HCT116 [1]): -80.2% | AC50 cell viability (HCT116 [2]): 0.417 µM

CCc1cccc(CC)c1NC(=O)N1Cc2[nH]nc(NC(=O)c3ccc(N4CCN(C)CC4)cc3)c2C1
efficacy (HCT116 [1]): -88.9% | AC50 cell viability (HCT116 [2]): 11.8 µM

CCCCOc1c(C(=O)c2c(F)cc(C)cc2F)cnc2[nH]ncc12
efficacy (HCT116 [1]): -75.8% | AC50 cell viability (HCT116 [2]): 1.32 µM

CCN(CC)CCOC1=CC=C(NC2=NC=C3\C=C(/C(=O)N(C)C3=N2)C4=C(Cl)C=CC=C4Cl)C=C1
efficacy (HCT116 [1]): -86.9% | AC50 cell viability (HCT116 [2]): 1.18 µM

CCNC(=O)c1cc2c(-c3cc(OCCN4CCCC4)c(Cl)cc3Cl)nc(N)nc2s1
efficacy (HCT116 [1]): -57.9% | AC50 cell viability (HCT116 [2]): 0.456 µM

CN(C)CC(=O)N1CCC(CC1)C2=CC=C(NC(=O)C3=NC(=C[NH]3)C#N)C(=C2)\C4=C\CCCC4
efficacy (HCT116 [1]): -80.1% | AC50 cell viability (HCT116 [2]): 16.6 µM

CN(C)Cc1cccc(N/C(=C2\C(=O)Nc3cc(C(=O)N(C)C)ccc32)c2ccccc2)c1
efficacy (HCT116 [1]): -69.8% | AC50 cell viability (HCT116 [2]): 13.2 µM

CN(C)CCCN\C1=C\2C(=O)N(C)C(=O)\N=C2N(C)C3=C1C=CC=C3
efficacy (HCT116 [1]): -67.5% | AC50 cell viability (HCT116 [2]): 5.25 µM

CN(C)CCOc1ccc(-c2nc(-c3ccncc3)c(-c3ccc4c(c3)CC/C4=N\O)[nH]2)cc1
efficacy (HCT116 [1]): -134% | AC50 cell viability (HCT116 [2]): 11.8 µM

Cc1nn(Cc2ccccc2Cl)c(C)c1CN(C)CC(O)COc1ccc(Cl)cc1 (stereo not drawn)
efficacy (HCT116 [1]): -92.3% | AC50 cell viability (HCT116 [2]): 18.6 µM

CN1CCN(c2cccc(Nc3nc4c(-c5ccc([S+](C)(=O)[O-])cc5)cccn4n3)c2)CC1
efficacy (HCT116 [1]): -121% | AC50 cell viability (HCT116 [2]): 16.6 µM

CNC(=O)c1ccccc1Nc1nc(Nc2ccc3c(c2OC)CCC[C@@H](N2CCN(CCO)CC2)C3)ncc1Cl
efficacy (HCT116 [1]): -110% | AC50 cell viability (HCT116 [2]): 4.17 µM

CNC(=O)Cn1cc(-c2ccc3c(c2)C(F)CC32NC(=O)N(CC(=O)N(Cc3ccc(F)cc3)C(C)C(F)(F)F)C2=O)cn1 (stereo not drawn)
efficacy (HCT116 [1]): -51.2% | AC50 cell viability (HCT116 [2]): 0.934 µM

CNC(=O)Cn1cc(-c2ccc3c(c2)C(F)CC32NC(=O)N(CC(=O)N(Cc3ccc(F)cc3)[C@@H](C)C(F)(F)F)C2=O)cn1 (stereo partly drawn)
efficacy (HCT116 [1]): -47.8% | AC50 cell viability (HCT116 [2]): 0.742 µM

CNc1nc(-c2ccc3c(N)n[nH]c3c2)cc(N2C[C@@H](C(=O)NC3CCCCC3)CC[C@H]2C)n1
efficacy (HCT116 [1]): -110% | AC50 cell viability (HCT116 [2]): 18.6 µM

COc1cc(C)c(Sc2cnc(NC(=O)c3ccc(CNC(C)C(C)(C)C)cc3)s2)cc1C(=O)N1CCN(C(C)=O)CC1 (stereo not drawn)
efficacy (HCT116 [1]): -110% | AC50 cell viability (HCT116 [2]): 11.8 µM

COc1ccccc1[C@H](c1cccc2ccccc12)[C@@](C)(C#N)C(=O)N1CCC(c2cccc(C(F)(F)F)c2)CC1
efficacy (HCT116 [1]): -39.8% | AC50 cell viability (HCT116 [2]): 0.833 µM

COC1=C(NC2=NC=C(Cl)C(=N2)N[C@@H]3[C@H]\4C[C@@H](\C=C4)[C@H]3C(N)=O)C=CC5=C1CCC(CC5)N6CCOCC6 (stereo partly drawn)
efficacy (HCT116 [1]): -74.2% | AC50 cell viability (HCT116 [2]): 4.17 µM

COc1cc(-c2cc(-c3ccc(N4CCNCC4)cc3)cnc2C)cc(OC)c1OC
efficacy (HCT116 [1]): -57.2% | AC50 cell viability (HCT116 [2]): 9.34 µM

COc1cc2nc(-c3ccc(N4CCN(C)CC4)cc3)nc(NCCN3CCOCC3)c2cc1OC
efficacy (HCT116 [1]): -87.2% | AC50 cell viability (HCT116 [2]): 2.95 µM

COc1cc2nc(N3CCCN(C)CC3)nc(NC3CCN(Cc4ccccc4)CC3)c2cc1OC
efficacy (HCT116 [1]): -95.2% | AC50 cell viability (HCT116 [2]): 6.61 µM

COc1ccc(OC)c(-c2nnc3ccc(-c4ccc(OC)c(O[C@@H]5CCOC5)c4)nn23)c1
efficacy (HCT116 [1]): -66.5% | AC50 cell viability (HCT116 [2]): 2.95 µM

COc1cc(N2CCC(N(C)C)CC2)ccc1Nc1ncc(Cl)c(Nc2ccccc2P(C)(C)=O)n1
efficacy (HCT116 [1]): -87.7% | AC50 cell viability (HCT116 [2]): 0.742 µM

COc1cc(C(=O)NC2CCN(C)CC2)ccc1Nc1ncc2c(n1)N(C1CCCC1)CCC(=O)N2C(C)C
efficacy (HCT116 [1]): -107% | AC50 cell viability (HCT116 [2]): 14.8 µM

COc1cc2nc(-c3cc(F)ccc3O)nc(N[C@@H]3CNC[C@H]3C(C)(C)O)c2cc1OC
efficacy (HCT116 [1]): -87.7% | AC50 cell viability (HCT116 [2]): 3.72 µM

COc1ccc(-c2cc3c(C)nc(N)nc3n([C@H]3CC[C@H](OCCO)CC3)c2=O)cn1
efficacy (HCT116 [1]): -71.8% | AC50 cell viability (HCT116 [2]): 0.332 µM

COc1ccc(CCN(C)CCCOc2ccc([S+](=O)([O-])c3c(C(C)C)c4ccccc4n3C)cc2)cc1OC
efficacy (HCT116 [1]): -91.8% | AC50 cell viability (HCT116 [2]): 8.33 µM

COc1ccc(Cl)c(Nc2ncnc3cc(OCC4CCN(C)CC4)c(OC)cc23)c1
efficacy (HCT116 [1]): -93.6% | AC50 cell viability (HCT116 [2]): 23.5 µM

COc1ccc2nc3[nH]nc(C)c3c(NCCOCCO)c2c1
efficacy (HCT116 [1]): -82.9% | AC50 cell viability (HCT116 [2]): 18.6 µM

COCC(=O)NC/C=C/c1ccc2ncnc(Nc3ccc(Oc4ccc(C)nc4)c(C)c3)c2c1
efficacy (HCT116 [1]): -64.8% | AC50 cell viability (HCT116 [2]): 20.9 µM

COCCOc1ccc2c(c1)ncn2-c1ccc2cccc(N3CCC(N)CC3)c2n1
efficacy (HCT116 [1]): -85.5% | AC50 cell viability (HCT116 [2]): 2.95 µM

Cc1nc([C@](C)(O)CO)sc1-c1cnc(N)c(O[C@H](C)c2cc(F)ccc2-n2nccn2)c1
efficacy (HCT116 [1]): -57.7% | AC50 cell viability (HCT116 [2]): 3.72 µM

Cc1ccc(-c2ccc3c(ccc4sc5c(c43)NC[C@@H](C)NC5=O)n2)cn1
efficacy (HCT116 [1]): -96.2% | AC50 cell viability (HCT116 [2]): 20.9 µM

CC(=O)N1c2ccc(-c3ccc(C(=O)O)cc3)cc2[C@H](Nc2ccc(Cl)cc2)C[C@@H]1C
efficacy (HCT116 [1]): -90.5% | AC50 cell viability (HCT116 [2]): 0.833 µM

C[C@@]1(c2ncncc2F)NC(=O)c2cc(-c3cn[nH]c3)ccc21
efficacy (HCT116 [1]): -101% | AC50 cell viability (HCT116 [2]): 14.8 µM

C[N]1C=C(C=N1)C2=C3\C=N/NC(=O)C4=C3C(=CC(=C4)NC(=O)[C@H](N)C5CCCCC5)[NH]2
efficacy (HCT116 [1]): -67.8% | AC50 cell viability (HCT116 [2]): 16.6 µM

C[S+](=O)([O-])N1CCc2c(-c3cnc(N)nc3)nc(N3CCOCC3)nc21
efficacy (HCT116 [1]): -56.8% | AC50 cell viability (HCT116 [2]): 0.661 µM

C/N=c1\ncc2cc(-c3cc(N/C(O)=N/CCC(C)(C)C)c(F)cc3C)c(C)nc2[nH]1
efficacy (HCT116 [1]): -82.1% | AC50 cell viability (HCT116 [2]): 2.63 µM

O=C(N[C@@H](c1ccccc1)[C@@H]1CCCCN1)c1cccc(C(F)(F)F)c1Cl
efficacy (HCT116 [1]): -108% | AC50 cell viability (HCT116 [2]): 20.9 µM

Fc1ccc(-c2csc3ncnc(NCc4ccc5c(c4)OCO5)c23)cc1
efficacy (HCT116 [1]): -57.3% | AC50 cell viability (HCT116 [2]): 8.33 µM

Nc1ncnc(Nc2ccc(OCc3ccccc3)c(Cl)c2)c1/C=N/OCCN1CCOCC1
efficacy (HCT116 [1]): -98% | AC50 cell viability (HCT116 [2]): 26.3 µM

Nc1ncnc2c1c(COc1cccc(Cl)c1)nn2C1CCOCC1
efficacy (HCT116 [1]): -37.2% | AC50 cell viability (HCT116 [2]): 18.6 µM

NC\1=N\C(=O)N(\C=C1F)[C@H]2C[C@H](O)[C@@H](CO)O2
efficacy (HCT116 [1]): -64% | AC50 cell viability (HCT116 [2]): 0.105 µM

N[S+](=O)([O-])c1ccc(Cc2c(-c3cccc(-c4ccccc4)c3)nn(-c3nc(C(=O)O)cs3)c2CC2CC2)cc1
efficacy (HCT116 [1]): -43.2% | AC50 cell viability (HCT116 [2]): 14.8 µM

O=C(O)c1ccc(O)c2ncc(N3CCOCC3)cc12
efficacy (HCT116 [1]): -43% | AC50 cell viability (HCT116 [2]): 23.5 µM

O=C(NCC(=O)N1CC[C@H](NC2CCC(O)(c3ccc(-c4ncccn4)cn3)CC2)C1)c1cccc(C(F)(F)F)c1 (stereo partly drawn)
efficacy (HCT116 [1]): -47% | AC50 cell viability (HCT116 [2]): 5.9 µM

Oc1cc(-c2nc(-c3ccccc3)[nH]c2-c2ccncc2)ccc1Cl
efficacy (HCT116 [1]): -90.3% | AC50 cell viability (HCT116 [2]): 4.17 µM

OC1CCC(CC1)N2\C=N/C3=C(C2=N)C(=C([N]3CC4=CC=CC=C4)C5=CC=CC=C5)C6=CC=CC=C6 (stereo not drawn)
efficacy (HCT116 [1]): -107% | AC50 cell viability (HCT116 [2]): 2.95 µM

O=C(CC12CC3CC(CC(C3)C1)C2)Nc1cccc2nc(NCCNCCO)ccc12
efficacy (HCT116 [1]): -101% | AC50 cell viability (HCT116 [2]): 26.3 µM

O=C1CSC(=O)N1C(CCc1ccncc1)COc1ccc(-c2cccc([N+](=O)[O-])c2)cc1 (stereo not drawn)
efficacy (HCT116 [1]): -32.9% | AC50 cell viability (HCT116 [2]): 2.63 µM

O=C(Nc1ncc(SCCN2CCCC2)s1)[C@]1(c2ccc([S+](=O)([O-])C3CC3)cc2)C[C@H]1C1CCCCC1
efficacy (HCT116 [1]): -95.8% | AC50 cell viability (HCT116 [2]): 18.6 µM
